Measurements as given in ChEMBL document CHEMBL1201862, “PubChem BioAssay data set” (2004).
Active and inactive are the calls of the source.

Experiments:
[1] = Luminescence Cell-Based Dose Confirmation HTS to Identify Activators of 5'UTR Stem-Loop Driven Alpha-Synuclein mRNA Translation in H4 Neuroglioblastoma Cells. [Related pubchem assays: 1829 (Project Summary), 1814 (Primary HTS)]; type: functional
[2] = Luminescence Cell-Based Dose Response HTS to Identify Activators of Luciferase Translation or Activity in H4 […] Cells. [Related pubchem assays: 1829 (Project Summary), 1814 (Primary HTS)]; type: functional
[3] = test system: H4; assay: Luminescence Cell-Based Dose Response HTS to Identify Activators of 5'UTR Stem-Loop Driven Prion Protein mRNA Translation in H4 Neuroglioblastoma Cells. [Related pubchem assays: 1829 (Project Summary), 1814 (Primary HTS)]; type: functional; details: Homo sapiens
[4] = target: T1, Ubiquitin-conjugating enzyme E2 N (Homo sapiens, UniProt P61088); type: functional;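 note: Dose-response confirmation in a TR-FRET assay detecting UBC13-driven polyubiquitin chain formation, inhibition measured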
T1 sequence (P61088 whole entry): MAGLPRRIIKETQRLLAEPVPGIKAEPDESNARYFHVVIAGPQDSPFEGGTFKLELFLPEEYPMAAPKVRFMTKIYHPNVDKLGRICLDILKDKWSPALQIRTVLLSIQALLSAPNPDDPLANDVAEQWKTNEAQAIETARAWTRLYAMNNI

[5] = target: Melanocortin receptor 4 (Homo sapiens, UniProt P32245); type: functional, cell-based;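 note: Cell-based assay with luminescence read-out, confirmatory dose-response testing for agonist activity of biased ligands at MC4R; human U2OS cells with tagged receptor and beta-arrestin; potency of agonists that increase receptor coupling to beta-arrestin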
[6] = blockers of HIV-1 envelope-mediated cell-cell fusion – cherry-pick, dose response (AID 652057); type: functional, cell-based
[7] = viability loss in CEM21 cells – cell-based, CellTiter-Glo luminescence, cherry-picked, cytotoxicity control for viral fusion inhibitor project, dose response (AID 652042); type: functional;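 note: potency for signal decrease meaning cytotoxicity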
[8] = blockers of HIV-1 ZM109 envelope-driven cell-cell fusion – HeLa effector, CEM target cells, luciferase, cherry-pick, dose response (AID 652058); type: functional, cell-based;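 note: luciferase signal from HIV-1 Env mediated cell-cell fusion of effector and target cells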
[9] = off-target signal loss in HeLa-CEM21 co-culture – HeLa F-luc CTL cells, cherry-picked, counter-screen for HIV-1 Env fusion inhibitor project, dose response (AID 652040); type: functional, cell-based;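 note: potency for signal decrease marking cytotoxic or nonspecific inhibition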
[10] = HIV-1 AD8 envelope cell-cell fusion blockers – cherry-pick, dose response (AID 652062); type: functional, cell-based;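 note: luciferase signal from cell-cell fusion driven by HIV-1 clade B AD8 Env; potency is for inhibitors of fusion seen as a drop in luminescence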
[11] = test system: HEK293; assay: cells; details: Homo sapiens
[12] = test system: HEK293; assay: cells; details: Homo sapiens; remark: listed apart in the source
[13] = target: Fructose-bisphosphate aldolase (Mycobacterium tuberculosis, UniProt P9WQA3); assay: Fluorescence-based biochemical high throughput dose response assay for inhibitors of the fructose-bisphosphate aldolase (FBA) of M. tuberculosis.; type: functional
[14] = target: T2, DNA repair and recombination protein RAD54-like (Homo sapiens, UniProt Q92698); assay: RAD54 Holliday junction migration blockers – biochemical, fluorescence, cherry-picked samples, dose series, confirmation (AID 651657); type: functional
T2 sequence (Q92698 whole entry): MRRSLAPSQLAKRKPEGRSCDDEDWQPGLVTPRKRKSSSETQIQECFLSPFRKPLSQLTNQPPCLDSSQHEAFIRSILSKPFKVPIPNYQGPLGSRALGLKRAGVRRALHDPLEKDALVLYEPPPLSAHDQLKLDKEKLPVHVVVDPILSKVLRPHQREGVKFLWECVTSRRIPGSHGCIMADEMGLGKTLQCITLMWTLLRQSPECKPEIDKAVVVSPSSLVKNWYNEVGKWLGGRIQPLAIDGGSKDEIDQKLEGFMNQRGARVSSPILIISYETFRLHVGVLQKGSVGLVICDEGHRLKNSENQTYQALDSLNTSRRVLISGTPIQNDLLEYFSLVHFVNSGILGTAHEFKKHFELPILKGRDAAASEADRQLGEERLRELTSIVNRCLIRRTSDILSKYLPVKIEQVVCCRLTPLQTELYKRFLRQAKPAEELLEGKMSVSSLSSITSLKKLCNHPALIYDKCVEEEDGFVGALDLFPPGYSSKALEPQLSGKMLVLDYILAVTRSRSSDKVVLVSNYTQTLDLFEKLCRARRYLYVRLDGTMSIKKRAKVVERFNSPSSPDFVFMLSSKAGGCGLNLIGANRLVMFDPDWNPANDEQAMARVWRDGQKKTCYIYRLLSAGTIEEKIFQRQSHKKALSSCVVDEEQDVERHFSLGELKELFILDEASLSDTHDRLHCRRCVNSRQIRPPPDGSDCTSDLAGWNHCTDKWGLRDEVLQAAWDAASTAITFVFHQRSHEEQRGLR

[15] = target: DNA repair protein RAD52 homolog (Homo sapiens, UniProt P43351); type: functional, biochemical
[16] = activation of miR-122 Renilla sensor silencing – cell-based, Huh7 psiCHECK-miR122, Renilla luciferase, cherry-picked, dose response (AID 651956); type: functional;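 note: huh7 hepatoma cells stably carrying a psiCHECK-2 miR-122 sensor plasmid; renilla luciferase signal reporting endogenous miR-122 activity after 48 h compound exposure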
[17] = inhibitors of EBV LMP1 NF-kappaB signaling – cell-based, luciferase reporter, luminescence, dry powder, set 2, dose response (AID 624376); type: functional
[18] = general mammalian cell viability loss – inhibitor set, cherry-pick, set 2, cytotoxicity control for miR-122 modulator project, dose response (AID 720697); type: functional, cell-based
[19] = cells; type: functional, cell-based
[20] = target: T3, Trace amine-associated receptor 1 (Homo sapiens, UniProt Q96RJ0); assay: Fluorescence-based cell-based high throughput dose response assay to identify agonists of the human trace amine associated receptor 1 (TAAR1).; type: functional
T3 sequence (Q96RJ0 whole entry): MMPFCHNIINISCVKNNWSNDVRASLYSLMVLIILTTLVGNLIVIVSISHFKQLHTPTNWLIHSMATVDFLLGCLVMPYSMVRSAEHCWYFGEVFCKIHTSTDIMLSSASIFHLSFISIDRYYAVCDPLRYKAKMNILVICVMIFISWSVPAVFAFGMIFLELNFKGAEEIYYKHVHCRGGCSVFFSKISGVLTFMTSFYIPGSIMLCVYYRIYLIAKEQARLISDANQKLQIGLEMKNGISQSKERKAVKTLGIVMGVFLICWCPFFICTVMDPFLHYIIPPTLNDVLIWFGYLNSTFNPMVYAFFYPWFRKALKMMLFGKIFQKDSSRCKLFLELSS

[21] = target: T3, Trace amine-associated receptor 1; assay: Counterscreen for agonists of the human trace amine associated receptor 1 (hTAAR1): Fluorescence-based cell-based high throughput dose response assay to identify hTAAR1 agonist that also desensitize TAAR1 receptor response.; type: functional
[22] = cells; type: functional, cell-based; remark: listed apart in the source
[23] = Trypanosoma cruzi growth suppression in host cells – NIH3T3 host cells, beta-gal luminescence, confirmation (AID 2044); type: functional, cell-based;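 note: intracellular parasites grown in NIH/3T3 mouse fibroblasts as host cells; luminescent beta-galactosidase reporter signal from transgenic T. cruzi replicating inside host cells; inhibitors lower the luminescence signal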
[24] = NIH3T3 cell viability loss – ATP luminescence, mouse fibroblasts, counter-screen, dose response (AID 2010); type: functional, cell-based;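 note: cells exposed to compound for about 90 hours before reading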

Chain of DNA repair protein RAD52 homolog (P43351 whole entry): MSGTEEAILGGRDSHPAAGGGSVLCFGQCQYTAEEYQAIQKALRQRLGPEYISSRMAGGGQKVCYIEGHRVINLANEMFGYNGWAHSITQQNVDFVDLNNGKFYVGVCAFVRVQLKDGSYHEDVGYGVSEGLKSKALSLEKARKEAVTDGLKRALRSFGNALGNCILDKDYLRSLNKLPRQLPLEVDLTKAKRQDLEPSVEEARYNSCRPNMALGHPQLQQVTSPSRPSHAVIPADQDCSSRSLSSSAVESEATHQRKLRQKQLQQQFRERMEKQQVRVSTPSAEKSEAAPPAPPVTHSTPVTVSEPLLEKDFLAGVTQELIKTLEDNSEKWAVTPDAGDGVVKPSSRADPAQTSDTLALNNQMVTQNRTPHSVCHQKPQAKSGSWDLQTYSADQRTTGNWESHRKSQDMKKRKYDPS
Chain of Melanocortin receptor 4 (P32245 whole entry, the tested form may be a part): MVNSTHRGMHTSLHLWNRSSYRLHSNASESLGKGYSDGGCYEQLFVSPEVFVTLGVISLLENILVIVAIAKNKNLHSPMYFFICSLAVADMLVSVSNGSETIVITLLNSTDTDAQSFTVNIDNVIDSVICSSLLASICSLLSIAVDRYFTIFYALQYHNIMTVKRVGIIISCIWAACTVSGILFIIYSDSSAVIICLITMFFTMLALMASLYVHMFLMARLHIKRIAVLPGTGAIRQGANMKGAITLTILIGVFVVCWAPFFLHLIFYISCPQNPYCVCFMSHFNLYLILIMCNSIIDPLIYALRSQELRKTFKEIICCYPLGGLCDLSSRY
Chain of Fructose-bisphosphate aldolase (P9WQA3 whole entry): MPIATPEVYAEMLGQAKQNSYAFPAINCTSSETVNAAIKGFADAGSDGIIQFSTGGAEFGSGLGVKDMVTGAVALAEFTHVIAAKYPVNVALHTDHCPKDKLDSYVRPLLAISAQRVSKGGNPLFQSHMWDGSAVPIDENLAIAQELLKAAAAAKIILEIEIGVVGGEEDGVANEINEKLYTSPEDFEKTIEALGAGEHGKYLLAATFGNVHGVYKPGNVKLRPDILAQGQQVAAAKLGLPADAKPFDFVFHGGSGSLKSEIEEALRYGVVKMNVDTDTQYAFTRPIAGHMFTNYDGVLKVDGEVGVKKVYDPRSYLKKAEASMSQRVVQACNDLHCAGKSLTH

With `Cc1c(CCOC(=O)CC23CC4CC(CC(C)(C4)C2)C3)sc[n+]1CC(=O)c1ccccc1` the EC50 [1] was > 120 µM (not active), the EC50 [2] was > 120 µM (not active) and the EC50 [3] was > 120 µM (not active). The IC50 [4] was > 20 µM (inactive), the EC50 [5] was > 89.2 µM (inactive) and the AC50 [6] was 3.05 µM (active). The AC50 [7] was 16.8 µM (active), the AC50 [8] was 3.85 µM (active) and the AC50 [9] was 4.35 µM (active). For the same molecule, the AC50 [10] was 12.7 µM (active), the EC50 [11] was > 59.6 µM (inactive) and the EC50 [12] was > 59.6 µM (inactive).
For `CC(NNC(=S)N1CCCCCC1)c1ccc2ccccc2n1` (configuration not stated), the AC50 [7] was 1.59 µM (active).
For `CN(C)c1ccc(-c2ccnc3c2CC(C)(C(=O)NCc2cccs2)O3)cc1` (configuration not stated), the IC50 [13] was 0.56 µM (active).
For `COc1ccc(-c2cc3nc(NCCN4CCCC4)n(C)c(=O)c3s2)cc1OC`, the AC50 [14] was 11.6 µM (active) and the AC50 [15] was 2.43 µM (active).
In the case of `COc1cccc(S(=O)(=O)N(C)C[C@@H]2Oc3cc(C4=CCCCC4)ccc3S(=O)(=O)N([C@H](C)CO)C[C@H]2C)c1`, the AC50 [16] is reported as 30.2 µM (active), the AbsAC35 [17] is reported as 85.29 µM and the AC50 [18] is reported as 0.502 µM (active).
With `Cc1ccccc1C(=O)N[C@H](C(=O)N1CCC[C@H]1C(=O)NCCc1ccccc1Cl)c1ccccc1` the IC50 [19] was > 29.9 µM (inactive), the EC50 [20] was 6.12 µM (active) and the IC50 [21] was 7.72 µM (active). For the same molecule, the EC50 [22] was > 29.9 µM (inactive).
In the case of `CCCN(CCC)CCCNC(=S)Nc1ccc2nc(N3CCN(C)CC3)cc(C)c2c1`, the EC50 [23] is reported as 2.24 µM (active), the EC50 [24] is reported as > 60 µM (not active) and the AC50 [14] is reported as 31.9 µM (active). For the same molecule, the AC50 [15] was 5.96 µM (active).
